Our source for the T1/2, Kd and IC50 values is ChEMBL document CHEMBL1212717, “A new screening assay for allosteric inhibitors of cSrc” (Nat Chem Biol, 2009).

Each structure is given as a SMILES string.

The target in assay [1] is T1, Proto-oncogene tyrosine-protein kinase Src (Homo sapiens, UniProt P12931). The conditions noted are these: 2 uM.
For assay [2], the target named is T2, Mitogen-activated protein kinase 14 (Homo sapiens, UniProt Q16539). The conditions noted are these: 2 uM.
Assay [3] concerns the target T2, Mitogen-activated protein kinase 14.
Assay [4] has as its target T1, Proto-oncogene tyrosine-protein kinase Src.

T1 sequence (P12931 2-536 limits assumed): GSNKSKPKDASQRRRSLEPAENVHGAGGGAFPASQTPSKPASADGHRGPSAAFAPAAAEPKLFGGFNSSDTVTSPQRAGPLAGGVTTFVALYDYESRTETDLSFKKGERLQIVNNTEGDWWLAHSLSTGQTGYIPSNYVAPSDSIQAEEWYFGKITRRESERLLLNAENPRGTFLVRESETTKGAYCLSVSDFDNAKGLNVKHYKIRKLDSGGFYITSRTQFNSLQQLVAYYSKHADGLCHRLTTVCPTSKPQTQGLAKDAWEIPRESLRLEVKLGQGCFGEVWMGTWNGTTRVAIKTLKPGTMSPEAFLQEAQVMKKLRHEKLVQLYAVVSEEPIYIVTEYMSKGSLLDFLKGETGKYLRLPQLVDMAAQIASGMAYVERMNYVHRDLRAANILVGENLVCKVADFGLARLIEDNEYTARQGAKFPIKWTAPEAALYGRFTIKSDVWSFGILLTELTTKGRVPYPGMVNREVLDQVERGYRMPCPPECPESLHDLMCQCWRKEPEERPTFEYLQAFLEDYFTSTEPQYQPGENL
T2 sequence (Q16539 whole entry): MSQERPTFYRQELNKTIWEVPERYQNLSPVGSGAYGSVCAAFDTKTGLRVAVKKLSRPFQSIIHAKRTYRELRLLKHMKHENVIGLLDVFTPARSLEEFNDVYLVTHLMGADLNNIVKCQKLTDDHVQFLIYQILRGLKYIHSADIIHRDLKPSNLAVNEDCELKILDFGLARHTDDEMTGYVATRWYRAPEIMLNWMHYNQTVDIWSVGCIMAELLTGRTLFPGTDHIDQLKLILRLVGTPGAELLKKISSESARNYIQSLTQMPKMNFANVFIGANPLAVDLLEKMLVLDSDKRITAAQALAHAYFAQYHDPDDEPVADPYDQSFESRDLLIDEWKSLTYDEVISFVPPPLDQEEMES

For the molecule `CC(C)(C)c1cc(NC(=O)Nc2ccc(Cl)cc2)n(-c2cccc(N)c2)n1`, the T1/2 in assay [1] turned out to be 5.35 s; in assay [2], 43.6 s.

Take `CC(C)(C)c1cc(NC(=O)Nc2ccc(Cl)cc2)n(-c2c(Cl)cc(C(F)(F)F)cc2Cl)n1`: the Kd entry in assay [3] is “Not Active”. Moreover, in assay [4], the IC50 result was “Not Active”.
